# From ChEMBL document CHEMBL1139441, “Design, synthesis, molecular modeling studies, and calpain inhibitory activity of novel alpha-ketoamides incorporating polar residues at the P1'-position” (J Med Chem, 2004)
# pKi: −log10 of the molar value.
# Target: T1, Calpain-1 catalytic subunit (Sus scrofa, UniProt P35750)
# T1 sequence (P35750 whole entry): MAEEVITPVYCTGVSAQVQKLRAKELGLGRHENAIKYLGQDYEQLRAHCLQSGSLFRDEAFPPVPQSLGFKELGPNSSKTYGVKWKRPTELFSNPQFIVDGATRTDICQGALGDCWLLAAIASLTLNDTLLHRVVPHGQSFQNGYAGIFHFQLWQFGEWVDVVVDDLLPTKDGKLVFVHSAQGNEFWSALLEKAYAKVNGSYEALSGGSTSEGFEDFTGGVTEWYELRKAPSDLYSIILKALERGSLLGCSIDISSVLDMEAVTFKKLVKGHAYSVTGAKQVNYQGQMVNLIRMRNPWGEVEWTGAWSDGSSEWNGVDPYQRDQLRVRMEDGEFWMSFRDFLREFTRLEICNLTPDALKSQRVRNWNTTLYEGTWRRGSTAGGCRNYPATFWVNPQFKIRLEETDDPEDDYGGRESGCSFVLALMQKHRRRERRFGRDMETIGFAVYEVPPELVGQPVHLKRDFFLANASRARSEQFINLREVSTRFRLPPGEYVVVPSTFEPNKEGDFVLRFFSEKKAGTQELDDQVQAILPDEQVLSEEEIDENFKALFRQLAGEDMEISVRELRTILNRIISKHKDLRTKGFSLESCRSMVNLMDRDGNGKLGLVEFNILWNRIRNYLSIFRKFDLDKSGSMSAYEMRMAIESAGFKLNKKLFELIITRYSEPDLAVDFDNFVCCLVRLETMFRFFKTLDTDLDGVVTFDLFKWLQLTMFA
# Experiment: Binding affinity against porcine erythrocyte calpain I was determined
row,pKi,Structure (SMILES)
1,< 3.37,CC(C)CC(NC(=O)OCc1ccccc1)C(=O)N[C@@H](Cc1ccccc1)C(=O)C(=O)N[C@H](Cc1ccccc1)C(=O)O (stereo partly specified)
2,8.33,CC(C)CC(NC(=O)OCc1ccccc1)C(=O)N[C@@H](Cc1ccccc1)C(=O)C(=O)NNCc1ccccc1 (stereo partly specified)
3,6.03,COC(=O)[C@@H](Cc1ccccc1)NC(=O)C(=O)[C@H](Cc1ccccc1)NC(=O)C(CC(C)C)NC(=O)OCc1ccccc1 (stereo partly specified)
4,6.08,CC(C)CC(NC(=O)OCc1ccccc1)C(=O)N[C@@H](Cc1ccccc1)C(=O)C(=O)N[C@@H](Cc1ccccc1)C(=O)O (stereo partly specified)
5,7.27,CC(C)CC(NC(=O)OCc1ccccc1)C(=O)N[C@@H](Cc1ccccc1)C(=O)C(=O)NCCc1ccccc1 (stereo partly specified)
6,6.17,COC(=O)[C@H](Cc1ccccc1)NC(=O)C(=O)[C@H](Cc1ccccc1)NC(=O)C(CC(C)C)NC(=O)OCc1ccccc1 (stereo partly specified)
